According to paper PMC3070799 (Neuropharmacology, 2011):
Where two headings read alike, the source gives them in different places.

What was measured:
human 5-HT3AB receptors [1] = target: T1, human 5-HT3AB receptors (Homo sapiens, UniProt O95264+P46098); assay: Two-electrode voltage clamp of 5-HT-induced currents in Xenopus oocytes; type: cell-based; conditions: for IC50 at heteromers (5-HT3AB) relative to 5-HT3A: 5-HT3AB versus 5-HT3A; for IC50: oocytes; for Hill slope: concentration-inhibition curve, 28 μM 5-HT
T1 construct: expressed in transfected cells; host or cells: Xenopus laevis oocytes (cRNA from pGEMHE)
T1 sequence (P46098 24-478): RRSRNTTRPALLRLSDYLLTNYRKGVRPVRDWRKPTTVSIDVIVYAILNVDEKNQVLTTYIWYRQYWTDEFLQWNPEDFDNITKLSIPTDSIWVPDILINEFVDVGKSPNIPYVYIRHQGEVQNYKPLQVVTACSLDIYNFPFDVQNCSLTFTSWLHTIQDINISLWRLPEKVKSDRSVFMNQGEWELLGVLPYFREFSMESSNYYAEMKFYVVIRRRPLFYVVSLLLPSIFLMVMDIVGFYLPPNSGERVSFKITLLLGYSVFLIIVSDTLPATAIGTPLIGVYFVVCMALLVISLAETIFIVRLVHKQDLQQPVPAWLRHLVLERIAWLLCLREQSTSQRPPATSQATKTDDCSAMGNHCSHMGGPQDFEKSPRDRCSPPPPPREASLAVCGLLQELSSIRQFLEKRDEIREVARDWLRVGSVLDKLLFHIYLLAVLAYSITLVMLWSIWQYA
T1 sequence (O95264 22-441): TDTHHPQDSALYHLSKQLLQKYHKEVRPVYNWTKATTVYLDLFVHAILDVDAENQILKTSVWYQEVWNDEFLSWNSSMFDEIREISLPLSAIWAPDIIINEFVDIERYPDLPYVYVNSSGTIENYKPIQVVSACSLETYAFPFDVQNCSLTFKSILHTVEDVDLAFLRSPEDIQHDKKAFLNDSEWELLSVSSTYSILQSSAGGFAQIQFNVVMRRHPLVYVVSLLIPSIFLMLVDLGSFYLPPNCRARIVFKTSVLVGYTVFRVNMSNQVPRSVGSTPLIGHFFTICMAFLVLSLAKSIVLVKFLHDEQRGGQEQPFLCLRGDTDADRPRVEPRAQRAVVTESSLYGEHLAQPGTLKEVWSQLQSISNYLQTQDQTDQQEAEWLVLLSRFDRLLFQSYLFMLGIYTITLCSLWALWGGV
Experimental: Stage V and VI oocytes were injected with 50 nl of ∼300 ng μl^−1 cRNA, and currents were recorded 1–4 days post-injection. A ratio of 1:3 (A:B) was used for the expression of heteromeric 5-HT3 receptors.
Xenopus laevis oocyte positive females were purchased from NASCO (Fort Atkinson, Wisconsin, USA) and maintained according to standard methods.
Currents were filtered at a frequency of 1 kHz. Micro-electrodes were fabricated from borosilicate glass (GC120TF-10, Harvard Apparatus, Edenbridge, Kent, UK) using a two stage horizontal pull (P-87, Sutter Instrument Company, California, USA) and filled with 3 M KCl. […] Oocytes were perfused with saline at a rate of 15 ml min^−1. Drug application was via a simple gravity fed system calibrated to run at the same rate. Extracellular saline contained (mM), 96 NaCl, 2 KCl, 1 MgCl2 and 5 mM HEPES; adjusted to pH 7.4 with NaOH.
Analysis and curve fitting was performed using Prism V3.02 (GraphPad Software, San Diego, California, USA, www.graphpad.com). Concentration-response data for each oocyte was normalised to the maximum current for that oocyte. For inhibition curves, antagonists were routinely co-applied in the presence of agonist. For PXN, oocytes were also pre-treated with the compound for 20 s. A 2 min wash was used between drug applications. The mean and S.E.M. for a series of oocytes was plotted against agonist or antagonist concentration and iteratively fitted (GraphPad Prism v3.02) to the following Hill equation:(1) IA=Imin+Imax−Imin/1+10^nH(logA50−logA) where A is the concentration of ligand present; IA is the current in the presence of ligand concentration A; Imin is the current when A = 0; Imax is the current when A = ∞ , A50 is the concentration of A which evokes a current equal to (Imax + Imin)/2; and nH is the Hill coefficient. Results are presented as mean ± S.E.M.. Statistical analysis was performed using ANOVA in conjunction with a Dunnett’s post-hoc test.

human 5-HT3A receptors = target: T2, human 5-HT3A receptors (Homo sapiens, UniProt P46098); type: binding
T2 construct: expressed in transfected cells; host or cells: Xenopus laevis oocytes (cRNA from pGEMHE)
T2 sequence (P46098 24-478): T1 sequence (P46098 24-478)
Experimental: (§1) Human embryonic kidney (HEK) 293 cells were maintained on 90 mm tissue culture plates at 37 °C and 7% CO2 in a humidified atmosphere. They were cultured in DMEM:F12 with GlutaMAX™ I media (Dulbecco’s Modified Eagle’s Medium /Nutrient Mix F12 (1:1), Invitrogen, Paisley, UK) containing 10% foetal calf serum. For radioligand binding studies, cells in 90 mm dishes were transfected using polyethyleneimine (PEI): 30 μl PEI (1 mg /ml), 5 μl cDNA and 1 ml DMEM were incubated for 10 min at room temperature, added drop wise to a 80–90% confluent plate, and incubated for 3–4 days before use.
(§2) Competition binding (8 point) was performed on at least three separate plates of transfected cells. […] Reactions were incubated for at least 1 h at 4 °C and terminated by vacuum filtration using a Brandel cell harvester onto GF/B filters pre-soaked in 0.3% polyethyleneimine. Radioactivity was determined by scintillation counting using a Beckman BCLS6500 (Fullerton, California, USA). Data were analysed by iterative curve fitting (GraphPad Prism v3.02) according to the equation:(5) BL=Bmin+Bmax−Bmin/1+10^nH(logL50−logL) where L is the concentration of ligand present; BL is the binding in the presence of ligand concentration L; Bmin is the binding when L = 0; Bmax is the binding when L = ∞, L50 is the concentration of L which gives a binding equal to (Bmax + Bmin)/2; and nH is the Hill coefficient. Results are presented as mean ± S.E.M.. Statistical analysis was performed using ANOVA in conjunction with a Dunnett’s post-hoc test.

human 5-HT3AB receptors [2] = target: T1, human 5-HT3AB receptors; type: binding
Experimental: as §1, §2

glycine α1 receptors = target: glycine α1 receptors; set-up: method as in Yang et al., 2007; conditions: ref Yang et al., 2007; cited from earlier work
glycine α1β receptors = target: glycine α1β receptors; set-up: method as in Yang et al., 2007; conditions: ref Yang et al., 2007; cited from earlier work
GABAA receptor = system: GABAA receptor; set-up: method as in earlier work; conditions: more potent than PTN; ref Chen et al., 2006; Curtis and Johnston, 1974; Yang et al., 2007; cited from earlier work
glycine α2 receptors = system: glycine α2 receptors; set-up: method as in earlier work; conditions: more potent than PTN; ref Chen et al., 2006; Curtis and Johnston, 1974; Yang et al., 2007; cited from earlier work
[3] = IC50, inhibition of 5-HT EC50 response (28 μM 5-HT)
[4] = pIC50, inhibition of 5-HT EC50 response (28 μM 5-HT)

Compound | IC50 at heteromers (5-HT3AB) relative to 5-HT3A (human 5-HT3AB receptors [1]) | IC50 (human 5-HT3AB receptors [1]; [3]) | Hill slope (human 5-HT3AB receptors [1]) | IC50 (human 5-HT3AB receptors [1]; [4]) | Effect on binding of [3H]granisetron (1 nM) (human 5-HT3A receptors) | Effect on binding of [3H]granisetron (1 nM) (human 5-HT3AB receptors [2]) | Effect on binding of [3H]granisetron (1 nM) (human 5-HT3A receptors; compound 5 mM) | Effect on binding of [3H]granisetron (1 nM) (human 5-HT3AB receptors [2]; compound 5 mM) | IC50 (glycine α1 receptors) | IC50 (glycine α1β receptors) | potency relative to PTN (GABAA receptor) | potency relative to PTN (glycine α2 receptors) | Effect on binding of [3H]granisetron (1 nM) (human 5-HT3A receptors; compound 2.5 mM) | Effect on binding of [3H]granisetron (1 nM) (human 5-HT3AB receptors [2]; compound 2.5 mM)
CC(C)(C)[C@]1(O)CC2OC(=O)CC23C(=O)OC2OC(=O)[C@H](O)C231 (some centres unmarked) [BB, bilobalide] | ~6 fold | 3200 µM | 0.75 ± 0.13 | 3160 µM | not affected | not affected | – | – | – | – | – | – | – | –
C=C(C)[C@@H]1[C@H]2OC(=O)[C@@H]1[C@]1(O)C[C@H]3O[C@]34C(=O)O[C@H]2[C@]14C [PXN, picrotoxinin] | ~6 fold | 62 µM | 0.68 ± 0.10 | 63.1 µM | – | – | not affected | not affected | ~5 µM | ~30 µM | ~50 fold | ~30 fold | – | –
ginkgolide B [GB] | ~6 fold | – | 0.52 ± 0.14 | – | – | – | – | – | – | – | – | – | not affected | not affected
